Key:
Type in all cases: biochemical
[1] = biological target: T1, tryptophan 2,3-dioxygenase 2 (TDO2) (Homo sapiens, UniProt P48775); assay: purified recombinant enzyme assay, kynurenine absorbance at […] nm; also kynurenine reduction in TDO2-293T cells
[2] = biological target: T2, indoleamine 2,3-dioxygenase 1 (IDO1) (Homo sapiens, UniProt P14902); assay: purified recombinant enzyme assay, kynurenine absorbance at […] nm; also kynurenine reduction in IDO1-293T cells
T2 construct: full-length, N-terminal His-AK tag (His-AK-IDO1)
T2 sequence (P14902 whole entry): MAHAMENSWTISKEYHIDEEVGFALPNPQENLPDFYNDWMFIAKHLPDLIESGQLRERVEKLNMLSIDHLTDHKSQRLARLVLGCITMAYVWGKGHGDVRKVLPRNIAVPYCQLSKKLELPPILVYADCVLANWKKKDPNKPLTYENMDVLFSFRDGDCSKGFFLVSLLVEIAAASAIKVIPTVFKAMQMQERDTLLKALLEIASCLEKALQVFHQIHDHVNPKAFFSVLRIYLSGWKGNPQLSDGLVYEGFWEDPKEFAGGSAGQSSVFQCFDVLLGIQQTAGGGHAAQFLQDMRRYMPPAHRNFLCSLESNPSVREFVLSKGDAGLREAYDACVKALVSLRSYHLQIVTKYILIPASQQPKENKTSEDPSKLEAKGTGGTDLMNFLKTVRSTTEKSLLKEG

[3] = biological target: T1, tryptophan 2,3-dioxygenase 2 (TDO2); assay: purified recombinant enzyme assay, kynurenine absorbance at […] nm
[4] = biological target: T2, indoleamine 2,3-dioxygenase 1 (IDO1); assay: purified recombinant enzyme inhibitor screen (compounds at […]), kynurenine absorbance at […] nm

T1 sequence (P48775 whole entry): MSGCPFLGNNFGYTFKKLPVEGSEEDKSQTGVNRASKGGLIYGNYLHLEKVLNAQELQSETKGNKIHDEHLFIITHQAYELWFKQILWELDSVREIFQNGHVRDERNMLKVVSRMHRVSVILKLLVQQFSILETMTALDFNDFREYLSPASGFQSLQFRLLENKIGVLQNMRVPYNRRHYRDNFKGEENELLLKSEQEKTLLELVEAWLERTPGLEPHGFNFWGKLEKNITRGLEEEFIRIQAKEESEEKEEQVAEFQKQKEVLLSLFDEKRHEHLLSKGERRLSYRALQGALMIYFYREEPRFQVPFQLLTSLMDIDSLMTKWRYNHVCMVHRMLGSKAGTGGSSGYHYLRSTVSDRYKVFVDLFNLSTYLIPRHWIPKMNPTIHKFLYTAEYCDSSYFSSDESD

Cc1c(S(=O)(=O)O)oc2c1C(=O)C(=O)c1c-2ccc2c1CCCC2(C)C [STS, Sodium tanshinone IIA sulfonate]
IC50 [1]: < 10 µM
IC50 [2]: < 10 µM

Cc1coc2c1C(=O)C(=O)c1c-2ccc2c1CCCC2(C)C [TSN, tanshinone IIA]
purified recombinant enzyme assay, kynurenine absorbance at 490 nm [3]: TSN only reduced the activity of TDO2 but not IDO1 (Figure 1C)

COc1c(O)cc2oc3cc(O)c(CC=C(C)C)c(O)c3c(=O)c2c1CC=C(C)C [mangostin]
purified recombinant enzyme inhibitor screen (compounds at 10 μM), kynurenine ab [4]: several compounds, including mangostin and androstenedione, could inhibit the activity of IDO1 (Supplementary Figures S1A,B)

From paper PMC9091350, “Sodium Tanshinone IIA Sulfonate as a Potent IDO1/TDO2 Dual Inhibitor Enhances Anti-PD1 Therapy for Colorectal Cancer in Mice” (Frontiers in Pharmacology, 2022)
